In test [1] the test system is mutant P2X4Rs at position 336. The test is described as follows: Two-electrode voltage-clamp of ATP-induced currents in mutant P2X4Rs with substitutions at position 336 in Xenopus oocytes. Format: cell-based, rat. As to conditions: IVM 3 μM. The method, then: (§1) Site-directed mutagenesis and cRNA synthesis. The cDNA of rat P2X4R (GenBank accession No. X87763) was sub-cloned into pcDNA3 vector (Invitrogen, Carlsbad, Calif.). Mutagenesis was performed to introduce single point mutations using QuickChange IIXL Site-Directed Mutagenesis kit (Stratagene, La Jolla, Calif.). The sequences of mutant constructs were verified using automated DNA sequencing (USC/Norris DNA Core Facility, University of Southern California).
(§2) Whole-cell voltage-clamp recordings. Two-electrode voltage-clamp recordings of oocytes were performed using a Warner Instruments Model OC-725C oocyte clamp amplifier (Hamden, Conn.) using procedures published earlier^5,6.
(§3) Experimental procedures. To induce currents and test the effects of alcohols and IVM in the present experiments, maximal (100 μM) or submaximal ATP concentrations (EC5-10 furthered referred to as EC10) were used. It has been previously shown that the use of EC10 can maximize the effects of ethanol and minimize receptor desensitization 18,19. The washout time between agonist applications was at least 5-10 min to allow complete re-sensitization of the receptors^18, 19.
(§4) Effects of the drugs were tested after a stable response to ATP EC10 was obtained. After a sufficient washout time (5-15 min), the cells were challenged with the same ATP EC10 to ensure an accurate response to the drugs and to asses any change in the baseline level.
(§5) IVM and alcohol applications.
(§6) Data analysis. Data are obtained from several batches of oocytes of at least 3 different frogs and are expressed as mean±SEM. Ethanol (hexanol) and/or IVM effects are presented as percentage change of peak currents evoked by ATP EC10 alone. Data were fitted to a concentration-response curve by using the following logistic equation: I=Imax*[drug]/([drug]+(EC50)), where I/Imax is the percentage of the maximum obtainable response, EC50 is the concentration producing a half-maximal response. GraphPAD Prism software (San Diego, Calif.) was used for data analysis and curve fitting. Statistical analysis was performed using unpaired t-test with significance set at P<0.05.

Test [2] addresses T1, mutant P2X4Rs at position 336 (Rattus norvegicus, UniProt P51577, M336Q).
T1 construct: expressed in transfected cells; host or cells: Xenopus laevis oocytes injected with cRNA
T1 sequence (P51577 1-388 M336Q): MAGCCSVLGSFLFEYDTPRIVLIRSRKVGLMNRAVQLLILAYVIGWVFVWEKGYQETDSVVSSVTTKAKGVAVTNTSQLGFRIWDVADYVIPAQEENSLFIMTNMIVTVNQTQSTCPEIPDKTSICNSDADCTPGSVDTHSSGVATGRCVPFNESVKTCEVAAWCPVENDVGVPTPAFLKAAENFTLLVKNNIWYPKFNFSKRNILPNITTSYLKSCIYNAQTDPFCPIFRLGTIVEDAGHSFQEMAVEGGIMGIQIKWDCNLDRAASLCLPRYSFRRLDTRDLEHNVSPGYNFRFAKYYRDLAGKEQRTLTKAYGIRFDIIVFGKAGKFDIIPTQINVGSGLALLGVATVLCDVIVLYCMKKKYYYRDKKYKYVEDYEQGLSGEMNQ
The test is described as above. Format: cell-based. Particulars: Met336 substituted with Gln; IVM 3 μM. The method, then:
as §1, §2, §3, §4, §5, §6

Another test deals with C57BL/6 mice. Kind of test: Two-bottle choice ethanol (10E versus water) intake in C57BL/6 mice.

Method for C57BL/6 mice: Based on the initial experiments, a second study was conducted using a similar research design strategy with the following changes. Using a within subjects design, alcohol drinking was allowed to stabilize (based on DOSE approximately 10 g/kg) with a new set of C57Bl mice (n=15). […] On intervening days, the mice were injected with saline. After 3 days of saline injections (allowing for alcohol drinking to restabilize back to ‘baseline’ levels), the mice were injected with a single, higher dose of IVM (5.0 mg/kg). Once again drinking was allowed to re-established back to baseline.

As to `CC[C@H](C)[C@H]1O[C@]2(CC[C@@H]1C)C[C@@H]1C[C@@H](C/C=C(\C)[C@@H](O[C@H]3C[C@H](OC)[C@@H](O[C@H]4C[C@H](OC)[C@@H](O)[C@H](C)O4)[C@H](C)O3)[C@@H](C)/C=C/C=C3\CO[C@@H]4[C@H](O)C(C)=C[C@@H](C(=O)O1)[C@]34O)O2` [IVM, 5-O demethyl-22,23-dihydroavermectin A1a], the “degree of IVM potentiation compared to WT P2X4Rs” value in test [1] (Met336 substituted with Ala or Val) is reported as “markedly increased”. In addition, the “sensitivity to IVM” value in test [1] (Met336 substituted with Arg or Glu) is “eliminated sensitivity”. Also, the “degree of IVM potentiation compared to WT P2X4Rs” value in test [1] (Met336 substituted with Phe or Trp) is listed as “increased IVM potentiation”. In addition, the “IVM sensitivity compared to non-polar bulky substitutions” value in test [2] was “approximately the same effect”. In the test with C57BL/6 mice (IVM 10 mg/kg intraperitoneally), the average water consumption result is “significant increase” and the ethanol intake result is “non-significant reduction”. Further, the “daily 10E preference” value in the test with C57BL/6 mice (IVM 10 mg/kg intraperitoneally prior to each day of access, 4 days, versus saline) is on record as “strong trend”. Moreover, the “10E preference on day 3” value in the test on C57BL/6 mice (IVM 10 mg/kg intraperitoneally, day 3) is given as “significantly lower”. Further, the ethanol consumption entry with C57BL/6 mice (single injection of IVM 2.5 mg/kg and 5.0 mg/kg, within subjects design, versus baseline with saline) was “significantly reduced”.
